Laboratory results as given in PubChem BioAssay AID248 (DTP/NCI, 2004).
Where “and” joins values, the source holds several entries; their conditions need not be identical. Identical values can stand only once. Toxic doses and inconclusive results are not listed. No stated cut-off is given here; in the data, active means T/C of 150% or more; inactive means T/C below 125%.

Tested on: L1210 leukemia ip in BDF1 mice, survival T/C
Assay: NCI In Vivo Anticancer Drug Screen. Data for tumor model L1210 Leukemia (intraperitoneal) in B6D2F1 (BDF1) mice
Conditions: endpoint: mean survival time, higher = longer survival
Outline: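 Survival endpoint. Drug-treated group vs vehicle group, expressed as T divided by C. Tumor passaged by transplantation.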

[1] = dose: 50.0 mg/kg/injection, schedule: Q01DX009 (ip), vehicle: saline with Tween-80
[2] = dose: 100.0 mg/kg/injection, schedule: Q01DX009 (ip), vehicle: saline with Tween-80
[3] = dose: 100.0 mg/kg/injection, schedule: Q04DX003 (ip), vehicle: saline with Tween-80
[4] = dose: 200.0 mg/kg/injection, schedule: Q04DX003 (ip), vehicle: saline with Tween-80
[5] = dose: 400.0 mg/kg/injection, schedule: Q04DX003 (ip), vehicle: saline with Tween-80

Measured: T/C

CC(C)CC1(C(C)C)C(=O)NC(=O)NC1=O
inactive: dose: 75.0 mg/kg/injection, schedule: Q01DX001 (ip), vehicle: saline 89 % of control | dose: 150.0 mg/kg/injection, schedule: Q01DX001 (ip), vehicle: saline 98 % of control

S=C(SSC(=S)N1CCCCC1)N1CCCCC1
inactive: dose: 100.0 mg/kg/injection, schedule: Q04DX003 (ip), vehicle: saline 104 % of control | dose: 200.0 mg/kg/injection, schedule: Q04DX003 (ip), vehicle: saline 98 % of control | dose: 400.0 mg/kg/injection, schedule: Q04DX003 (ip), vehicle: saline 101 % of control

CCCCCCCC(=O)N1C(C)CCC1C (configuration not stated)
inactive: dose: 100.0 mg/kg/injection, schedule: Q04DX002 (ip), vehicle: saline 94 % of control | dose: 200.0 mg/kg/injection, schedule: Q04DX002 (ip), vehicle: saline 94 % of control | dose: 400.0 mg/kg/injection, schedule: Q04DX002 (ip), vehicle: saline 98 % of control

CCCCc1c(Cl)nc(Cl)nc1Cl
inactive: dose: 25.0 mg/kg/injection, schedule: Q01DX009 (ip), vehicle: saline with Tween-80 105 % of control | [1] 88 % of control

CN(CCO)N=Nc1ccccc1C(N)=O
inactive: [2] 117 % of control | [3] 105 % of control | [4] 110 % of control | [5] 104 % of control
active: dose: 400.0 mg/kg/injection, schedule: Q01DX009 (ip), vehicle: saline with Tween-80 162 % of control and 177 % of control | dose: 600.0 mg/kg/injection, schedule: Q01DX009 (ip), vehicle: saline with Tween-80 176 % of control

CCOC(=O)c1ccc(NC(=O)Oc2ccc(OC)cc2)cc1
inactive: dose: 100.0 mg/kg/injection, schedule: Q01DX009 (ip), vehicle: Klucel (hydroxypropylcellulose) (HPC) 96 % of control | dose: 200.0 mg/kg/injection, schedule: Q01DX009 (ip), vehicle: Klucel (hydroxypropylcellulose) (HPC) 100 % of control | dose: 400.0 mg/kg/injection, schedule: Q01DX009 (ip), vehicle: Klucel (hydroxypropylcellulose) (HPC) 98 % of control

C/C=C/c1cc(OC)cc(C2(O)OC(=O)c3c(OC)cccc32)c1OC (configuration not stated)
inactive: [3] 105 % of control | [4] 94 % of control | [5] 100 % of control

Cc1ccc(SC(=O)CC(=O)Sc2ccc(C)cc2)cc1
inactive: [1] 91 % of control | [2] 94 % of control | dose: 200.0 mg/kg/injection, schedule: Q01DX009 (ip), vehicle: saline with Tween-80 97 % of control

CC(=O)c1ccc(N=C(N)N=C(N)N)cc1
inactive: dose: 75.0 mg/kg/injection, schedule: Q01DX001 (ip), vehicle: carboxymethylcellulose (CMC) 110 % of control | dose: 150.0 mg/kg/injection, schedule: Q01DX001 (ip), vehicle: carboxymethylcellulose (CMC) 93 % of control

NC(=O)c1nc(C(F)(F)F)[nH]c1C(N)=O
inactive: dose: 50.0 mg/kg/injection, schedule: Q01DX009 (ip), vehicle: water 96 % of control | dose: 100.0 mg/kg/injection, schedule: Q01DX009 (ip), vehicle: water 102 % of control | dose: 100.0 mg/kg/injection, schedule: Q04DX003 (ip), vehicle: water 100 % of control | dose: 200.0 mg/kg/injection, schedule: Q01DX009 (ip), vehicle: water 109 % of control | dose: 200.0 mg/kg/injection, schedule: Q04DX003 (ip), vehicle: water 100 % of control | dose: 300.0 mg/kg/injection, schedule: Q01DX009 (ip), vehicle: water 91 % of control

O=C1C(NC(=O)C2CCCCC2)=C(N2CC2)C(=O)C(NC(=O)C2CCCCC2)=C1N1CC1
active: dose: 263.0 mg/kg/injection, schedule: Q01DX Z (ip), vehicle: carboxymethylcellulose (CMC) 150 % of control
inactive: dose: 50.0 mg/kg/injection, schedule: Q01DX010 (ip), vehicle: saline 93 % of control and 101 % of control | dose: 50.0 mg/kg/injection, schedule: Q01DX Z (ip), vehicle: Klucel (hydroxypropylcellulose) (HPC) 105 % of control | dose: 78.0 mg/kg/injection, schedule: Q01DX Z (ip), vehicle: carboxymethylcellulose (CMC) 115 % of control | dose: 100.0 mg/kg/injection, schedule: Q01DX010 (ip), vehicle: saline 101 % of control and 104 % of control | dose: 100.0 mg/kg/injection, schedule: Q01DX Z (ip), vehicle: Klucel (hydroxypropylcellulose) (HPC) 109 % of control | dose: 117.0 mg/kg/injection, schedule: Q01DX Z (ip), vehicle: carboxymethylcellulose (CMC) 104 % of control | dose: 175.0 mg/kg/injection, schedule: Q01DX Z (ip), vehicle: carboxymethylcellulose (CMC) 119 % of control | dose: 200.0 mg/kg/injection, schedule: Q01DX010 (ip), vehicle: saline 98 % of control and 115 % of control | dose: 400.0 mg/kg/injection, schedule: Q01DX010 (ip), vehicle: saline 98 % of control and 104 % of control | dose: 400.0 mg/kg/injection, schedule: Q01DX Z (ip), vehicle: Klucel (hydroxypropylcellulose) (HPC) 102 % of control | dose: 440.0 mg/kg/injection, schedule: Q01DX001 (ip), vehicle: carboxymethylcellulose (CMC) 102 % of control and 119 % of control | dose: 670.0 mg/kg/injection, schedule: Q01DX001 (ip), vehicle: carboxymethylcellulose (CMC) 103 % of control and 91 % of control | dose: 1000.0 mg/kg/injection, schedule: Q01DX001 (ip), vehicle: carboxymethylcellulose (CMC) 101 % of control and 103 % of control
